Data as given in patent publication US11542273B2, “Amide compound having bet proteolysis-inducing action and medicinal application thereof” (MITSUBISHI TANABE PHARMA CORPORATION, priority 2018, dated 2023).

Legend:
BRD4 protein = BRD4 protein (Homo sapiens (Human), UniProt O60885); assay: BRD4 protein degradation inducing action in cancer cells (immunofluorescence, Operetta); type: cell-based; settings: LNCaP cells, 6 hr treatment, fluorescence intensity
Method in brief: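 DC50 = compound concentration reducing BRD4 immunofluorescence to 50% of untreated cells, interpolated between the two flanking concentrations. Treatment: LNCaP cells, 6 hr, 10% FBS/RPMI1640, 37° C. Cells were then fixed, permeabilized, stained with anti-BRD4 and Alexa Fluor 488 or 546 secondaries, and imaged.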

[1] = tested on: human prostate cancer LNCaP cells; assay: Cytotoxic action on cancer cells (WST-8, 96 hr); type: cell-based; settings: Homo sapiens, LNCaP, 96 h, read-out: LNCaP cytotoxic activity: IC50
Method in brief: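 Viability was read by WST-8 after 96 hr of compound exposure, normalised to untreated wells, with cells pre-cultured overnight in 10% FBS/RPMI1640 at 37 °C and 5% CO2. IC50 comes from a straight line between the two survival points enclosing 50%.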

SMILES | DC50 (BRD4 protein) | IC50 [1]
COC(=O)C[C@@H]1N=C(c2ccc(-c3ccc4oc(C(=O)N[C@H](C(=O)N5C[C@H](O)C[C@H]5C(=O)NCc5ccc(-c6scnc6C)cc5)C(C)(C)C)nc4c3)cc2)c2c(sc(C)c2C)-n2c(C)nnc21 [Example 171, methyl [(6S)-4-{4-[2-({(2S)-1-[(2S,4R)-4-hydroxy-2-({[4-(4-methyl-1,3-thiazol-5-yl)phenyl]methyl}carbamoyl)pyrrolidin-1-yl]-3,3-dimethyl-1-oxobutan-2-yl}carbamoyl)-1,3-benzoxazol-5-yl]phenyl}-2,3,9-trimethyl-6H-thieno[3,2-f][1,2,4]triazolo[4,3-a][1,4]diazepin-6-yl]acetate] | 0.16 nM | 0.08 nM
COC(=O)C[C@@H]1N=C(c2ccc(-n3ccc(C(=O)N[C@H](C(=O)N4C[C@H](O)C[C@H]4C(=O)N[C@@H](C)c4ccc(-c5scnc5C)cc4)C(C)(C)C)n3)cc2)c2c(sc(C)c2C)-n2c(C)nnc21 [Example 172, methyl [(6S)-4-{4-[3-({(2S)-1-[(2S,4R)-4-hydroxy-2-({(1S)-1-[4-(4-methyl-1,3-thiazol-5-yl)phenyl]ethyl}carbamoyl)pyrrolidin-1-yl]-3,3-dimethyl-1-oxobutan-2-yl}carbamoyl)-1H-pyrazol-1-yl]phenyl}-2,3,9-trimethyl-6H-thieno[3,2-f][1,2,4]triazolo[4,3-a][1,4]diazepin-6-yl]acetate] | 0.37 nM | 0.36 nM
COC(=O)C[C@@H]1N=C(c2ccc(-c3cc(C(=O)N[C@H](C(=O)N4C[C@H](O)C[C@H]4C(=O)N[C@@H](C)c4ccc(-c5scnc5C)cc4)C(C)(C)C)cc(F)c3F)cc2)c2c(sc(C)c2C)-n2c(C)nnc21 [Example 173, methyl {(6S)-4-[2′,3′-difluoro-5′-({(2S)-1-[(2S,4R)-4-hydroxy-2-({(1S)-1-[4-(4-methyl-1,3-thiazol-5-yl)phenyl]ethyl}carbamoyl)pyrrolidin-1-yl]-3,3-dimethyl-1-oxobutan-2-yl}carbamoyl)[1,1′-biphenyl]-4-yl]-2,3,9-trimethyl-6H-thieno[3,2-f][1,2,4]triazolo[4,3-a][1,4]diazepin-6-yl}acetate] | 0.53 nM | 0.53 nM
COC(=O)C[C@@H]1N=C(c2ccc(-c3c(F)ccc(C(=O)N[C@H](C(=O)N4C[C@H](O)C[C@H]4C(=O)N[C@@H](C)c4ccc(-c5scnc5C)cc4)C(C)(C)C)c3F)cc2)c2c(sc(C)c2C)-n2c(C)nnc21 [Example 174, methyl {(6S)-4-[2′,6′-difluoro-3′-({(2S)-1-[(2S,4R)-4-hydroxy-2-({(1S)-1-[4-(4-methyl-1,3-thiazol-5-yl)phenyl]ethyl}carbamoyl)pyrrolidin-1-yl]-3,3-dimethyl-1-oxobutan-2-yl}carbamoyl)[1,1′-biphenyl]-4-yl]-2,3,9-trimethyl-6H-thieno[3,2-f][1,2,4]triazolo[4,3-a][1,4]diazepin-6-yl}acetate] | 0.31 nM | 0.37 nM
COC(=O)C[C@@H]1N=C(c2ccc(-c3cc(F)cc(C(=O)N[C@H](C(=O)N4C[C@H](O)C[C@H]4C(=O)N[C@@H](C)c4ccc(-c5scnc5C)cc4)C(C)(C)C)c3F)cc2)c2c(sc(C)c2C)-n2c(C)nnc21 [Example 175, methyl {(6S)-4-[2′,5′-difluoro-3′-({(25)-1-[(2S,4R)-4-hydroxy-2-({(1S)-1-[4-(4-methyl-1,3-thiazol-5-yl)phenyl]ethyl}carbamoyl)pyrrolidin-1-yl]-3,3-dimethyl-1-oxobutan-2-yl}carbamoyl)[1,1′-biphenyl]-4-yl]-2,3,9-trimethyl-6H-thieno[3,2-f][1,2,4]triazolo[4,3-a][1,4]diazepin-6-yl}acetate] | 0.5 nM | 0.3 nM
COC(=O)C[C@@H]1N=C(c2ccc(-c3ccc(C(=O)N[C@H](C(=O)N4C[C@H](O)C[C@H]4C(=O)N[C@@H](C)c4ccc(-c5scnc5C)cc4)C(C)(C)C)c(F)c3F)cc2)c2c(sc(C)c2C)-n2c(C)nnc21 [Example 176, methyl {(6S)-4-[2′,3′-difluoro-4′-({(2S)-1-[(2S,4R)-4-hydroxy-2-({(1S)-1-[4-(4-methyl-1,3-thiazol-5-yl)phenyl]ethyl}carbamoyl)pyrrolidin-1-yl]-3,3-dimethyl-1-oxobutan-2-yl}carbamoyl)[1,1′-biphenyl]-4-yl]-2,3,9-trimethyl-6H-thieno[3,2-f][1,2,4]triazolo[4,3-a][1,4]diazepin-6-yl}acetate] | 0.44 nM | 0.39 nM
COC(=O)C[C@@H]1N=C(c2ccc(N3CCN(c4cccc(C(=O)N[C@H](C(=O)N5C[C@H](O)C[C@H]5C(=O)N[C@@H](C)c5ccc(-c6scnc6C)cc5)C(C)(C)C)n4)CC3)cc2)c2c(sc(C)c2C)-n2c(C)nnc21 [Example 177, methyl [(6S)-4-(4-{4-[6-({(2S)-1-[(2S,4R)-4-hydroxy-2-({(1S)-1-[4-(4-methyl-1,3-thiazol-5-yl)phenyl]ethyl}carbamoyl)pyrrolidin-1-yl]-3,3-dimethyl-1-oxobutan-2-yl}carbamoyl)pyridin-2-yl]piperazin-1-yl}phenyl)-2,3,9-trimethyl-6H-thieno[3,2-f][1,2,4]triazolo[4,3-a] [1,4]diazepin-6-yl]acetate] | 0.23 nM | 0.36 nM

Second part, led by results:

DC50 (BRD4 protein) | SMILES | IC50 [1]
0.8 nM | COC(=O)C[C@@H]1N=C(c2ccc(-c3ccccc3OCC(=O)N[C@H](C(=O)N3C[C@H](O)C[C@H]3C(=O)N[C@@H](C)c3ccc(-c4scnc4C)cc3)C(C)(C)C)cc2)c2c(sc(C)c2C)-n2c(C)nnc21 [Example 178, methyl [(6S)-4-{2′-[2-({(2S)-1-[(2S,4R)-4-hydroxy-2-({(1S)-1-[4-(4-methyl-1,3-thiazol-5-yl)phenyl]ethyl}carbamoyl)pyrrolidin-1-yl]-3,3-dimethyl-1-oxobutan-2-yl}amino)-2-oxoethoxy][1,1′-biphenyl]-4-yl}-2,3,9-trimethyl-6H-thieno[3,2-f][1,2,4]triazolo[4,3-a][1,4]diazepin-6-yl]acetate] | 0.68 nM
0.11 nM | COC(=O)C[C@@H]1N=C(c2ccc(-c3ccc4sc(C(=O)N[C@H](C(=O)N5C[C@H](O)C[C@H]5C(=O)N[C@@H](C)c5ccc(-c6scnc6C)cc5)C(C)(C)C)nc4c3)cc2)c2c(sc(C)c2C)-n2c(C)nnc21 [Example 179, methyl [(6S)-4-{4-[2-({(2S)-1-[(2S,4R)-4-hydroxy-2-({(1S)-1-[4-(4-methyl-1,3-thiazol-5-yl)phenyl]ethyl}carbamoyl)pyrrolidin-1-yl]-3,3-dimethyl-1-oxobutan-2-yl}carbamoyl)-1,3-benzothiazol-5-yl]phenyl}-2,3,9-trimethyl-6H-thieno[3,2-f][1,2,4]triazolo[4,3-a][1,4]diazepin-6-yl]acetate] | 0.21 nM
0.031 nM | COC(=O)C[C@@H]1N=C(c2ccc(-c3ccc4nc(C(=O)N[C@H](C(=O)N5C[C@H](O)C[C@H]5C(=O)N[C@@H](C)c5ccc(-c6scnc6C)cc5)C(C)(C)C)oc4c3)cc2)c2c(sc(C)c2C)-n2c(C)nnc21 [Example 181, methyl [(6S)-4-{4-[2-({(2S)-1-[(2S,4R)-4-hydroxy-2-({(1S)-1-[4-(4-methyl-1,3-thiazol-5-yl)phenyl]ethyl}carbamoyl)pyrrolidin-1-yl]-3,3-dimethyl-1-oxobutan-2-yl}carbamoyl)-1,3-benzoxazol-6-yl]phenyl}-2,3,9-trimethyl-6H-thieno[3,2-f][1,2,4]triazolo[4,3-a][1,4]diazepin-6-yl]acetate] | 0.037 nM
0.93 nM | COC(=O)C[C@@H]1N=C(c2ccc(-c3ccc(C(=O)N[C@H](C(=O)N4C[C@H](O)C[C@H]4C(=O)N[C@@H](C)c4ccc(-c5scnc5C)cc4)C(C)(C)C)c(C)c3)cc2)c2c(sc(C)c2C)-n2c(C)nnc21 [Example 183, methyl {(6S)-4-[4′-({(2S)-1-[(2S,4R)-4-hydroxy-2-({(1S)-1-[4-(4-methyl-1,3-thiazol-5-yl)phenyl]ethyl}carbamoyl)pyrrolidin-1-yl]-3,3-dimethyl-1-oxobutan-2-yl}carbamoyl)-3′-methyl[1,1′-biphenyl]-4-yl]-2,3,9-trimethyl-6H-thieno[3,2-f][1,2,4]triazolo[4,3-a][1,4]diazepin-6-yl}acetate] | 1.5 nM
0.26 nM | COC(=O)C[C@@H]1N=C(c2ccc(-c3ccc(CCC(=O)N[C@H](C(=O)N4C[C@H](O)C[C@H]4C(=O)N[C@@H](C)c4ccc(-c5scnc5C)cc4)C(C)(C)C)s3)cc2)c2c(sc(C)c2C)-n2c(C)nnc21 [Example 188, methyl [(6S)-4-(4-{5-[3-({(2S)-1-[(2S,4R)-4-hydroxy-2-({(1S)-1-[4-(4-methyl-1,3-thiazol-5-yl)phenyl]ethyl}carbamoyl)pyrrolidin-1-yl]-3,3-dimethyl-1-oxobutan-2-yl}amino)-3-oxopropyl]thiophen-2-yl}phenyl)-2,3,9-trimethyl-6H-thieno[3,2-f][1,2,4]triazolo[4,3-a][1,4]diazepin-6-yl]acetate] | 0.042 nM
0.44 nM | COC(=O)C[C@@H]1N=C(c2ccc(-c3ccc(C(=O)N[C@H](C(=O)N4C[C@H](O)C[C@H]4C(=O)NCc4ccc(-c5scnc5C)cc4)C(C)(C)C)cc3F)cc2)c2c(sc(C)c2C)-n2c(C)nnc21 [Example 189, methyl {(6S)-4-[2′-fluoro-4′-({(2S)-1-[(2S,4R)-4-hydroxy-2-({[4-(4-methyl-1,3-thiazol-5-yl)phenyl]methyl}carbamoyl)pyrrolidin-1-yl]-3,3-dimethyl-1-oxobutan-2-yl}carbamoyl) [1,1′-biphenyl]-4-yl]-2,3,9-trimethyl-6H-thieno [3,2-f][1,2,4]triazolo [4,3-a][1,4]diazepin-6-yl}acetate] | 0.17 nM
